Measurements published in patent US8871934B2, “Fluorene compound and pharmaceutical use thereof” (Japan Tobacco Inc., priority 2008, dated 2014).
Read-outs that look alike come from different tables or passages of the source.

Biological target: human PDHK2 (hPDHK2) (Homo sapiens (Human), UniProt Q15119)
Experiment: Inhibitory action of PDHK activity in vitro (kinase reaction, residual PDH activity measured)
Assay type: biochemical
[1] = PDHK inhibitory activity, class symbol of IC50
[2] = read-out: PDHK inhibitory activity IC50
[3] = class symbol of IC50, read-out: PDHK inhibitory activity

| SMILES | IC50 [1] [nM] | IC50 [2] [nM] | IC50 [3] [nM] |
| --- | --- | --- | --- |
| O=C(COc1cc(-c2cnn(CCO)c2)c2c(c1)C(O)(C(F)(F)F)c1ccccc1-2)N1CCC1 (stereo not drawn) [compound 496] | < 100 | 23 | – |
| O=C(COc1cc(-c2cnn(CCO)c2)c2c(c1)C(O)(C(F)(F)F)c1ccccc1-2)N1CC(O)C1 (stereo not drawn) [compound 497] | < 100 | 31 | – |
| O=C(O)CCCOc1cc(-c2cn[nH]c2)c2c(c1)C(O)(C(F)(F)F)c1ccccc1-2 (stereo not drawn) [compound 498] | < 100 | 47 | – |
| CC(=O)N(C)C[C@@H](O)COc1cc(-c2cnn(C)c2)c2c(c1)C(O)(C(F)(F)F)c1ccccc1-2 (stereo partly drawn) [compound 499] | < 100 | 39 | – |
| CC(=O)N(C)C[C@H](O)COc1cc(-c2cnn(C)c2)c2c(c1)C(O)(C(F)(F)F)c1ccccc1-2 (stereo partly drawn) [compound 500] | < 100 | 31 | – |
| CN(CCOc1cc(-c2cnn(C)c2)c2c(c1)C(O)(C(F)(F)F)c1ccccc1-2)C(=O)C(C)(C)O (stereo not drawn) [compound 501] | < 100 | 32 | – |
| NC(=O)c1cc(OCCN2CCCC2=O)cc2c1-c1ccccc1C2(O)C(F)(F)F (stereo not drawn) [compound 502] | < 100 | 48 | – |
| NC(=O)COc1cc(-c2cn[nH]c2)c2c(c1)C(O)(C(F)(F)F)c1ccccc1-2 (stereo not drawn) [compound 503] | < 100 | 45 | – |
| OCCn1cc(-c2cc(F)cc3c2-c2ccccc2C3(O)C(F)(F)F)cn1 (stereo not drawn) [compound 505] | < 100 | 46 | – |
| NC(=O)Cn1cc(-c2cc(Cl)cc3c2-c2ccccc2C3(O)C(F)(F)F)cn1 (stereo not drawn) [compound 506] | < 100 | 30 | – |
| Cc1cc(-c2cnn(CC(N)=O)c2)c2c(c1)C(O)(C(F)(F)F)c1ccccc1-2 (stereo not drawn) [compound 507] | < 100 | 26 | – |
| NC(=O)Cn1cc(-c2cc(OCCC34CC5CC(CC(C5)C3)C4)cc3c2-c2ccccc2C3(O)C(F)(F)F)cn1 (stereo not drawn) [compound 508] | < 100 | 48 | – |
| OCCn1cc(-c2cc(OCCC34CC5CC(CC(C5)C3)C4)cc3c2-c2ccccc2C3(O)C(F)(F)F)cn1 (stereo not drawn) [compound 509] | < 100 | 51 | – |
| O=C(O)CCCOc1cc(-c2cncnc2)c2c(c1)C(O)(C(F)(F)F)c1ccccc1-2 (stereo not drawn) [compound 510] | < 100 | 62 | – |
| CCNC(=O)Cn1cc(-c2cccc3c2-c2ccccc2C3(O)C(F)(F)F)cn1 (stereo not drawn) [compound 511] | < 100 | 56 | – |
| CNC(=O)Cn1cc(-c2cc(C)cc3c2-c2ccccc2C3(O)C(F)(F)F)cn1 (stereo not drawn) [compound 512] | < 100 | 38 | – |
| CNC(=O)Cn1cc(-c2cc(Cl)cc3c2-c2ccccc2C3(O)C(F)(F)F)cn1 (stereo not drawn) [compound 513] | < 100 | 32 | – |
| CC(C)NC(=O)Cn1cc(-c2cccc3c2-c2ccccc2C3(O)C(F)(F)F)cn1 (stereo not drawn) [compound 514] | < 100 | 58 | – |
| CNC(=O)Cn1cc(-c2cc(F)cc3c2-c2ccccc2C3(O)C(F)(F)F)cn1 (stereo not drawn) [compound 515] | < 100 | 38 | – |
| O=C(O)Cn1cc(-c2cc(Cl)c3c(c2)C(O)(C(F)(F)F)c2ccccc2-3)cn1 (stereo not drawn) [compound 516] | 100 to 1000 | 110 | – |
| O=C(O)CCn1cc(-c2cc(Cl)c3c(c2)C(O)(C(F)(F)F)c2ccccc2-3)cn1 (stereo not drawn) [compound 517] | < 100 | 57 | – |
| Cn1cc(-c2cc(C(N)=O)c3c(c2)C(O)(C(F)(F)F)c2ccccc2-3)cn1 (stereo not drawn) [compound 518] | < 100 | 54 | – |

| SMILES | IC50 [1] [nM] | IC50 [2] [nM] | IC50 [3] [nM] |
| --- | --- | --- | --- |
| Cc1cc(Cl)c2c(c1)C(O)(C(F)(F)F)c1ccccc1-2 (stereo not drawn) [compound 519] | 100 to 1000 | 418 | – |
| NC(=O)CCn1cc(-c2cc(Cl)c3c(c2)C(O)(C(F)(F)F)c2ccccc2-3)cn1 (stereo not drawn) [compound 521] | < 100 | 36 | – |
| OC1(C(F)(F)F)c2ccccc2-c2c(-c3cnn(C45CC6CC(CC(C6)C4)C5)c3)cccc21 (stereo not drawn) [compound 522] | < 100 | 61 | – |
| CC(C)(C)n1cc(-c2cccc3c2-c2ccccc2C3(O)C(F)(F)F)cn1 (stereo not drawn) [compound 523] | < 100 | 48 | – |
| CC(C)(C)Cn1cc(-c2cccc3c2-c2ccccc2C3(O)C(F)(F)F)cn1 (stereo not drawn) [compound 524] | < 100 | 87 | – |
| OC1(C(F)(F)F)c2ccccc2-c2c(Cl)cc(F)cc21 (stereo not drawn) [compound 525] | 100 to 1000 | 677 | – |
| CC(=O)NCCn1cc(-c2cccc3c2-c2ccccc2C3(O)C(F)(F)F)cn1 (stereo not drawn) [compound 527] | < 100 | 79 | – |
| CC(C)n1cc(-c2cc(C(N)=O)c3c(c2)C(O)(C(F)(F)F)c2ccccc2-3)cn1 (stereo not drawn) [compound 528] | < 100 | 49 | – |
| CCn1cc(-c2cc(C(N)=O)c3c(c2)C(O)(C(F)(F)F)c2ccccc2-3)cn1 (stereo not drawn) [compound 530] | < 100 | 43 | – |
| CC(=O)N(C)CCn1cc(-c2cccc3c2-c2ccccc2C3(O)C(F)(F)F)cn1 (stereo not drawn) [compound 535] | 100 to 1000 | 197 | – |
| NC(=O)c1cc(-c2cnn(CCO)c2)cc2c1-c1ccccc1C2(O)C(F)(F)F (stereo not drawn) [compound 536] | < 100 | 54 | – |
| OC12CC3CC(C1)CC(Cn1cc(-c4cccc5c4-c4ccccc4C5(O)C(F)(F)F)cn1)(C3)C2 (stereo not drawn) [compound 547] | < 100 | 62 | – |
| Cc1nn(C)c(C)c1-c1ccc2c(c1)C(O)(C(F)(F)F)c1ccccc1-2 (stereo not drawn) [compound 555] | – | > 1000 | > 1000 |
| O=C(c1cc(CO)c2c(c1)C(O)(C(F)(F)F)c1ccccc1-2)N1CCC1 (stereo not drawn) [compound 556] | < 100 | 53 | – |
| Cn1cc(-c2cc(CO)cc3c2-c2ccccc2C3(O)C(F)(F)F)cn1 (stereo not drawn) [compound 557] | < 100 | 77 | – |
| Cn1cc(-c2cc(N3CCC(C(=O)O)CC3)cc3c2-c2ccccc2C3(O)C(F)(F)F)cn1 (stereo not drawn) [compound 558] | < 100 | 81 | – |
| OC1(C(F)(F)F)c2ccccc2-c2ccc(Cn3cccn3)cc21 (stereo not drawn) [compound 559] | – | > 1000 | > 1000 |
| OC1(C(F)(F)F)c2ccccc2-c2ccc(-n3cccn3)cc21 (stereo not drawn) [compound 560] | 100 to 1000 | 970 | – |
| Cn1cc(-c2cnc3c(c2)C(O)(C(F)(F)F)c2ccccc2-3)cn1 (stereo not drawn) [compound 562] | < 100 | 59 | – |
| OCCn1cc(-c2cnc3c(c2)C(O)(C(F)(F)F)c2ccccc2-3)cn1 (stereo not drawn) [compound 563] | < 100 | 63 | – |
| Cn1cc(-c2cc(O)cc3c2-c2ccccc2C3(O)C(F)(F)F)cn1 (stereo not drawn) [compound 564] | 100 to 1000 | 105 | – |
| Cc1nn(C)c(C)c1-c1cccc2c1-c1ccccc1C2(O)C(F)(F)F (stereo not drawn) [compound 567] | – | > 1000 | > 1000 |

| SMILES | IC50 [1] [nM] | IC50 [2] [nM] | IC50 [3] [nM] |
| --- | --- | --- | --- |
| O=C(O)CCn1cc(-c2cnc3c(c2)C(O)(C(F)(F)F)c2ccccc2-3)cn1 (stereo not drawn) [compound 568] | < 100 | 83 | – |
| Cn1cc(-c2cc(N3CCOCC3)cc3c2-c2ccccc2C3(O)C(F)(F)F)cn1 (stereo not drawn) [compound 569] | < 100 | 44 | – |
| Cn1cc(-c2cc(CO)c3c(c2)C(O)(C(F)(F)F)c2ccccc2-3)cn1 (stereo not drawn) [compound 570] | 100 to 1000 | 110 | – |
| Cn1cc(-c2cc(OCC(O)CO)cc3c2-c2ccccc2C3(O)C(F)(F)F)cn1 (stereo not drawn) [compound 571] | < 100 | 50 | – |
| O=C(c1cc(CO)c2c(c1)C(O)(C(F)(F)F)c1ccccc1-2)N1CCCC1 (stereo not drawn) [compound 572] | 100 to 1000 | 109 | – |
| C#Cc1cc(-c2cnn(C)c2)cc2c1-c1ccccc1C2(O)C(F)(F)F (stereo not drawn) [compound 578] | < 100 | 78 | – |
| Cn1cc(-c2cc(-c3cnn(C)c3)c3c(c2)C(O)(C(F)(F)F)c2ccccc2-3)cn1 (stereo not drawn) [compound 579] | < 100 | 19 | – |
| OCCn1cc(-c2cc(-c3cnn(CCO)c3)c3c(c2)C(O)(C(F)(F)F)c2ccccc2-3)cn1 (stereo not drawn) [compound 580] | < 100 | 21 | – |
| O=C1CCCN1CCOc1cc(CO)c2c(c1)C(O)(C(F)(F)F)c1ccccc1-2 (stereo not drawn) [compound 583] | < 100 | 64 | – |
| Cc1cc(-c2cnn(CCO)c2)cc2c1-c1ccccc1C2(O)C(F)(F)F (stereo not drawn) [compound 584] | < 100 | 77 | – |
| CC(=O)c1cc(-c2cnn(CCO)c2)cc2c1-c1ccccc1C2(O)C(F)(F)F (stereo not drawn) [compound 585] | < 100 | 26 | – |
| CC(O)c1cc(-c2cnn(CCO)c2)cc2c1-c1ccccc1C2(O)C(F)(F)F (stereo not drawn) [compound 586] | 100 to 1000 | 513 | – |
| CCn1cc(-c2cc(C(C)=O)c3c(c2)C(O)(C(F)(F)F)c2ccccc2-3)cn1 (stereo not drawn) [compound 587] | < 100 | 21 | – |
| OCCn1cc(-c2ccc3c(c2)C(O)(C(F)(F)F)c2cccc(CO)c2-3)cn1 (stereo not drawn) [compound 590] | > 1000 | 5920 | – |
| Cn1cc(-c2cc(C(C)(C)O)c3c(c2)C(O)(C(F)(F)F)c2ccccc2-3)cn1 (stereo not drawn) [compound 591] | – | > 1000 | > 1000 |
| CC(C)(O)c1cc(-c2cnn(CCO)c2)cc2c1-c1ccccc1C2(O)C(F)(F)F (stereo not drawn) [compound 592] | – | > 1000 | > 1000 |
| CC(C)n1cc(-c2ccc3c(c2)C(O)(C(F)(F)F)c2cccc(CO)c2-3)cn1 (stereo not drawn) [compound 593] | – | > 1000 | > 1000 |
| CC(=O)c1cc(-c2cnn(CCC(=O)O)c2)cc2c1-c1ccccc1C2(O)C(F)(F)F (stereo not drawn) [compound 594] | < 100 | 48 | – |
| CC(=O)c1cc(-c2cnn(C)c2)cc2c1-c1ccccc1C2(O)C(F)(F)F (stereo not drawn) [compound 596] | < 100 | 41 | – |
| CCn1cc(-c2ccc3c(c2)C(O)(C(F)(F)F)c2cccc(CO)c2-3)cn1 (stereo not drawn) [compound 597] | – | > 1000 | > 1000 |
| CC(O)c1cc(-c2cnn(C)c2)cc2c1-c1ccccc1C2(O)C(F)(F)F (stereo not drawn) [compound 598] | 100 to 1000 | 653 | – |
| CC(=O)c1cc(OCCN2CCCC2=O)cc2c1-c1ccccc1C2(O)C(F)(F)F (stereo not drawn) [compound 599] | < 100 | 33 | – |
